These results are taken from PMC9603901, “Therapeutic Potential of Antimicrobial Peptide PN5 against Multidrug-Resistant E. coli and Anti-Inflammatory Activity in a Septic Mouse Model” (Microbiology Spectrum, 2022).

Where no end group is shown, it is not given here.

In one series the test system is P. aeruginosa ATCC 27853. It is filed as cell-based, Pseudomonas aeruginosa. The settings on record: microdilution, NB, 18 to 24 h, 37°C, three independent experiments. The protocol: (§1) Bacterial cells were cultured at 37°C in the appropriate culture media with shaking (180 rpm). Luria-Bertani broth (LB) (244620; BD Difco) was used for E. coli ATCC 25922, ASEC strains, and B. subtilis KCTC 2217. Nutrient broth (NB) (234000; BD Difco) was used for P. aeruginosa ATCC 27853, S. Typhimurium KCTC 1926, and A. baumannii KCTC 2508. Tryptic soy broth (TSB) (211825; BD Difco) was used for S. aureus ATCC 25923. Finally, brain heart infusion (BHI) (237500; BD Difco) was used for L. monocytogenes KCTC 3710. The antimicrobial activity of each peptide was determined using microdilution assays. To this end, 2-fold serial dilution series of each peptide (from 1 to 64 μM) were added to duplicate media with 10 mM sodium phosphate buffer (pH 7.4). Fifty microliters of the peptide and antibiotic solution was added to each well of a 96-well plate (32096, surface nontreatment; SPL Life Sciences). Then, 50 μL of 2 × 10^5 CFU mL^−1 of bacteria was added to each well, and the samples were incubated for 18 to 24 h without shaking at 37°C.

The test system of a further series is S. Typhimurium KCTC 1926. It is filed as cell-based, Salmonella enterica serovar Typhimurium. The settings on record: microdilution, NB, 18 to 24 h, 37°C, three independent experiments. As for the experimental part:
as §1
A general note: Broth dilution looks for growth in wells or tubes with falling amounts of substance.

The subject of a further series is A. baumannii KCTC 2508. The format is cell-based, Acinetobacter baumannii. The settings on record: microdilution, NB, 18 to 24 h, 37°C, three independent experiments. The protocol: as §1
In series [1] the test system is L. monocytogenes KCTC 3710. The format is cell-based, Listeria monocytogenes. The settings on record: microdilution, BHI, 18 to 24 h, 37°C, three independent experiments. The protocol: as §1
The next series has as its system RAW 264.7 cells. Kind of series: MTT cell viability. The format is cell-based, mouse. The settings on record: up to 200 μM, 24 h. The protocol: RAW 264.7 cells (mouse macrophage cells) were maintained in high-glucose Dulbecco’s modified Eagle medium (DMEM) (Welgene, Daegu, South Korea) supplemented with 10% fetal bovine serum (FBS) (Gibco) and 1% penicillin at 37°C in humidified 5% CO2. Cells (2 × 10^5 cells well^−1) were seeded into DMEM supplemented with 10% FBS medium in a 96-well plate. The MTT assay was performed after culturing the cells in 96-well plates at a density of 2 × 10^5 cells well^−1, followed by treatment with serially diluted PN5, magainin 2, and melittin. After 24 h, the medium was discarded, and 100 μL DMEM and 10% FBS medium containing 0.5 mg mL^−1 MTT were added to each well. After 4 h of incubation, the medium was discarded and dimethyl sulfoxide was added to each well to solubilize the formazan. The optical densities at 570 and 650 nm (OD570 and OD650, respectively) of the treated cells were compared to those of control cells. The hemolytic activity of the peptides was evaluated as the release of hemoglobin from an 8% mRBC suspension. A 100-μL aliquot of the 8% mRBC suspension was added to the wells of a 96-well plate, and 100 μL of peptide solution in phosphate-buffered saline (PBS) was added at a final peptide concentration of 200 μM. After incubation for 1 h at 37°C with shaking (50 rpm), the suspensions were centrifuged at 1,000 × g for 5 min. The absorbance of the supernatant was measured at 414 nm using a Versa Max microplate reader (Molecular Devices). As a control, no hemolysis and complete hemolysis were determined in PBS and 0.1% Triton X-100, respectively. The degree of hemolysis was calculated using the following equation as described in reference: %hemolysis=[(A414withpeptide-A414withPBS)/(A414with0.1%TritonX-100-A414 with PBS)] × 100

Another series concerns the target T1, elastase (Homo sapiens, UniProt P08246).
T1 construct: purchased Sigma-Aldrich 324681
Kind of series: Resistance to proteolytic degradation, RP-HPLC. It is filed as in vitro ADME. The settings on record: 50 μg PN5, 10 μg mL^−1 elastase, 0.1 M Tris-HCl pH 8.0, 37°C, 0 to 540 min; RP-HPLC C18, 214 nm. The protocol:
The stability of PN5 in the presence of the enzyme was measured by treatment with elastase. First, 10 μg mL^−1 elastase in 0.1 M Tris-HCl (pH 8.0) was incubated with 50 μg PN5 at 37°C with shaking (180 rpm), with aliquots collected at 0, 30, 60, 120, 360, 540, and 720 min. After incubation, each sample was observed by RP-HPLC with a Jupiter C18 column (4.6 by 250 mm, 300 Å, 5 μm). E. coli 25922 and S. aureus 25923 were cultured in LB and TSB media with shaking (180 rpm) at 37°C, washed twice with 10 mM sodium phosphate buffer (pH 7.4), suspended in 10 mL LB and TSB media at 2 × 10^5 CFU mL^−1, mixed with 0.2% agarose, and dried for 1 h. Paper disks (6 mm) were placed on the dried agarose, and 50 μg PN5 aliquots was dropped onto the disks. The disks were stored in a 37°C incubator for 24 h. PN5- and elastase (10 μg mL^−1)-treated PN5 was prepared to evaluate the susceptibility to E. coli 25922 and S. aureus 25923. PN5 (6.25, 12.5, 25, 50, and 100 μg) was diluted in 10 mM sodium phosphate buffer (pH 7.4) and 10 μg mL^−1 elastase. E. coli 25922 and S. aureus 25923 were prepared at 2 × 10^5 CFU mL^−1. Peptides with 10 μg mL^−1 elastase and bacteria were incubated for 9 h with shaking (180 rpm) and observed using a visible spectrophotometer (Pharmacia Biotech, Uppsala, Sweden) ([60]).

In general, MIC refers to the lowest concentration found to suppress growth. Read a low MIC as inhibition by little substance.

T1 sequence (P08246 30-267): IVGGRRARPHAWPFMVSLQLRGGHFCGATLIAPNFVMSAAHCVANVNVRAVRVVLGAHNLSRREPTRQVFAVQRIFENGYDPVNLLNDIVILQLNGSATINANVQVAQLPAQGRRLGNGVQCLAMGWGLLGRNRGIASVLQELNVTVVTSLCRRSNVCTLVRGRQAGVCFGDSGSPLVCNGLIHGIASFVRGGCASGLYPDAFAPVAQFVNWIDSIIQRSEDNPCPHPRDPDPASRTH

For FKFLARTGKFL-NH2 [PN5], the minimum inhibitory concentration (MIC) in the series with P. aeruginosa ATCC 27853 was found to be 4 µM; with S. Typhimurium KCTC 1926, 2 µM; against A. baumannii KCTC 2508 it was 4 µM; in series [1] it was 16 µM. Further, in the series on RAW 264.7 cells, the “toxicity, MTT assay” value is “did not show toxicity”. The “peak of residual peptide after incubation with elastase” value at elastase was “remained even after 9 h”.
